Read-outs that look alike come from different tables or passages of the source. Blank lines part the entries; values can stand above or below the molecule they belong to.
Legend:
BT474 cells = assay: BT474 cell proliferation, BrdU-labeling; format: cell-based, human; settings: Homo sapiens, BT-474, read-out: cell proliferation inhibition constant IC50, BT474
Experimental: Protein #21-His and Protein #23-His, were expressed and purified as described in Example 1. Effects of the recombinant binding proteins on BT474 cell proliferation were determined by measuring DNA synthesis using BrdU-labeling (BrdU, Cell Proliferation ELISA, Roche). Briefly, 10000 BT474 cells were seeded per well in a 96 well plate in 100 ul complete medium and incubated for 24 hours. Recombinant binding proteins or controls were added for an additional 72 hours. BrdU for cell labeling was added for the last 24 hours. Labeled (proliferating) cells were detected according to the manufactures protocol. The data were analyzed using the GraphPad prism software, plotting log [c] on the x-axis against OD450-602 nm on the y-axis. Data were fitted using a non-linear regression fit (log(antagonist) vs. response—Variable slope (four parameters)) deriving IC50 values.
Protein #21 and Protein #21-His were expressed and purified as described in Example 1. Standard BrdU cell proliferation assays were performed, well-known to the person skilled in the art. Briefly, effects on cell proliferation of Protein #21-His, other compounds, or Protein #21-His in combination with other compounds, were determined by measuring DNA synthesis using BrdU-labeling (BrdU, Cell Proliferation ELISA, Roche). Briefly, 10000 cells were seeded per well in a 96 well plate in 100 μl complete medium and incubated for 24 hours. Protein #21-His and/or compounds were added for an additional 72 hours. BrdU for cell labeling was added for the last 24 hours. Labeled (proliferating) cells were detected according to the manufactures protocol. The data were analyzed using the Graph Pad prism software (log [c] vs. OD450-602 nm plot). Data were fitted using a non-linear regression fit (log(antagonist) vs. response—variable slope (four parameters)).

[1] = Pharmacokinetic analysis in mouse; format: in vivo
Experimental: The measurements shown in this example are the result of a half-life engineering effort as described in Example 11. Protein #21-His and Protein #23-His were expressed and purified as described in Example 1. The pharmacokinetic properties of the His-tagged proteins were assessed in mouse as described elsewhere (Zahnd, C., Kawe, M., Stumpp, M. T., de Pasquale, C., Tamaskovic, R., Nagy-Davidescu, G., Dreier, B., Schibli, R., Binz, H. K., Waibel, R., Plückthun, A., Cancer Res. 70, 1595-1605, 2010). […] Having SEQ ID NO: 16 present in the recombinant binding protein thus appears to be more favorable than having SEQ ID NO: 18 present.
Polypeptide linkers that link protein domains are well-known to the person skilled in the art. Gly-Ser-rich linkers are well-known from single-chain Fv antibody fragments, where they have proven to be most appropriate to link the two Fv polypeptide chains. […] Protein #26-His and Protein #27-His, were expressed and purified as described in Example 1. Pharmacokinetic analyses in mouse were performed as described in Example 8.
For the studies in this example Protein #21-His, Protein #24-His, Protein #28-His, Protein #29-His, and Protein #30-His were prepared according to Example 1. Protein #28-His was additionally PEGylated using a 40 kDa PEG moiety (NOF Sunbright GL2-400MA) by maleimid coupling of the PEG-moiety onto the free C-terminal cysteine of Protein #28-His, followed by purification to homogeneity using standard purification methods, procedures well known to the person skilled in the art. Pharmacokinetic analyses in mouse or cynomolgus monkey were performed as described in Examples 8 and 9.

[2] = Storage stability in PBS analysed by SDS-PAGE; format: physicochemical; settings: for degradation upon prolonged incubation: in PBS at 10 mg/ml at 40° C.
Experimental: “Improved storage stability” in the context of the present invention means the reduction of the amounts of a degradation band, preferably the reduction of the amount of degradation products, as detected by a Coomassie-stained SDS-PAGE occurring after storage at 40° C. for 1 month at 10 mg/ml in PBS, by at least 5%, 10%, 15%, 20%, 25%, 30%, 35%, 40%, 45%, 50%, or 50%. Methods to assess storage stability by SDS-PAGE are well known to the person skilled in the art. Examples of designed ankyrin repeat domains and recombinant binding proteins with improved storage stability properties are given in Examples 2 and 3.
Protein #13-His, Protein #14-His and Protein #15-His were prepared as described in Example 1, and samples were concentrated to 10 mg/ml in PBS. Protein #14-His and Protein #15-His where then stored for 1 month at −80° C. or at 40° C. in glass vials, followed by analysis on SDS 15% PAGE. […] These findings illustrate that Protein #14-His has improved storage stability compared to Proteins #13-His and Protein #15-His.
A storage stability improvement is also observed, when testing the storage stability of Protein #21 and Protein #22 (recombinant binding proteins consisting of the amino acid sequences corresponding to SEQ ID NOs: 21 and 22, respectively). Protein #21 and Protein #22 are prepared as described in Example 1, samples are concentrated to 10 mg/ml in PBS and stored for 1 month at −80° C. in or at 40° C. in glass vials, followed by analysis on standard size-exclusion chromatography.

[3] = compound titrated alone or with Protein #21 at 2 nM
[4] = Protein #21 was titrated, Trametinib (10^−5 M), Cobimetinib (10^−5 M) or Salirasib (3*10^−5 M)

IC50 (BT474 cells; [3]): 2540 nM
Molecule: Cc1nc(NC(=O)N2CCC[C@H]2C(N)=O)sc1-c1ccnc(C(C)(C)C(F)(F)F)c1 [Alpelisib]

IC50 (BT474 cells; [3]): 204 nM
Molecule: Cc1c(CN2CCN(C(=O)[C@H](C)O)CC2)sc2c(N3CCOCC3)nc(-c3cnc(N)nc3)nc12 [Apitolisib]

IC50 (BT474 cells; [4]): 1.02 nM
Molecule: O=C(c1ccc(F)c(F)c1Nc1ccc(I)cc1F)N1CC(O)([C@@H]2CCCCN2)C1 [Cobimetinib]

IC50 (BT474 cells; [3]): 2600 nM
Molecule: CC(=O)c1c(C)c2cnc(Nc3ccc(N4CCNCC4)cn3)nc2n(C2CCCC2)c1=O [Palbociclib]

IC50 (BT474 cells; [4]): 0.94 nM
Molecule: CC(C)=CCC/C(C)=C/CC/C(C)=C/CSc1ccccc1C(=O)O [Salirasib]

IC50 (BT474 cells; [3]): 105 nM
Molecule: Cc1nc(-c2cn3c(n2)-c2ccc(-c4cnn(C(C)(C)C(N)=O)c4)cc2OCC3)n(C(C)C)n1 [Taselisib]

IC50 (BT474 cells; [4]): 1.04 nM
Molecule: CC(=O)Nc1cccc(-n2c(=O)n(C3CC3)c(=O)c3c(Nc4ccc(I)cc4F)n(C)c(=O)c(C)c32)c1 [Trametinib]

B1: Protein #26-His: SEQ ID NO: 26 with a His-tag (SEQ ID NO: 1) fused to its N terminus (protein)
chain: MRGSHHHHHHGSDLGKKLLEAARAGQDDEVRILMANGADVNAKDYFSHTPLHLAARNGHLKIVEVLLKAGADVNAKDFAGKTPLHLAANDGHLEIVEVLLKHGADVNAQDIFGKTPADIAADAGHEDIAEVLQKAAGGGGSGGGGSGGGGSGGGGSGSDLGAKLLSDLGVKLLWAAARGQDDEVRILLAAGADVNAKDFQGITPLHIAAQSGHLEIVEVLLKAGADVNAKDVTGDTPLHLAAQHGHLVIVEVLLKAGADVNAQDERGWTPADLAADWGHEDIAEVLQKAAGGGGSGGGGSGSDLGKKLLEAARAGQDDEVRILMANGADVNAKDEYGLTPLYLATAHGHLEIVEVLLKNGADVNAVDAIGFTPLHLAAFIGHLEIAEVLLKHGADVNAQDKFGKTAFDISIGNGNEDLAEILQKAAGGGGSGGGGSGGGGSGGGGSGSDLGKKLLEAARAGQDDEVRILMANGADVNAKDYFSHTPLHLAARNGHLKIVEVLLKAGADVNAKDFAGKTPLHLAANDGHLEIVEVLLKHGADVNAQDIFGKTPADIAADAGHEDIAEVLQKAA
modifications: His-tag; Protein comprising four designed ankyrin repeat domains
injected dose remaining 48 hours after intravenous injection [1]: 5.3%

B2: Protein #12-His: SEQ ID NO: 12 with a His-tag; designed ankyrin repeat domain with binding specificity for serum albumin (WO2012/069654) (protein)
chain: GSDLGKKLLEAARAGQDDEVRILLKAGADVNAKDYFSHTPLHLAARNGHLKIVEVLLKAGADVNAKDFAGKTPLHLAANDGHLEIVEVLLKAGADVNAQDIFGKTPADIAADAGHEDIAEVLQKAA
modifications: His-tag; Designed ankyrin repeat domain
degradation upon prolonged incubation [2]: degrade

B3: Protein #15-His: SEQ ID NO: 15 with a His-tag; designed ankyrin repeat domain with binding specificity for serum albumin (WO2012/069654) (protein)
chain: GSDLGKKLLEAARAGQDDEVRILMANGADVNAKDYFSHTPLHLAARNGHLKIVEVLLKAGADVNAKDFAGKTPLHLAANDGHLEIVEVLLKHGADVNAQDIFGKTPADIAADAGHEDIAEVLQKAA
modifications: His-tag; Designed ankyrin repeat domain
stability upon storage at −80° C. ([2]; 10 mg/ml in PBS, 1 month at −80° C., SDS 15% PAGE): equivalent stability
degradation upon prolonged incubation [2]: degrade

B4: Protein #30-His: SEQ ID NO: 30 with a His-tag (SEQ ID NO: 1) fused to its N terminus (protein)
chain: MRGSHHHHHHGSDLGKKLLEAARAGQDDEVRILMANGADVNAKDYFSHTPLHLAARNGHLKIVEVLLKAGADVNAKDFAGKTPLHLAANDGHLEIVEVLLKHGADVNAQDIFGKTPADIAADAGHEDIAEVLQKAAGGGGSGGGGSGGGGSGGGGSGSDLGKKLLEAARAGQDDEVRILMANGADVNAKDYFSHTPLHLAARNGHLKIVEVLLKAGADVNAKDFAGKTPLHLAANDGHLEIVEVLLKHGADVNAQDIFGKTPADIAADAGHEDIAEVLQKAAGGGGSGGGGSGGGGSGGGGSGSDLGAKLLSDLGVKLLWAAARGQDDEVRILLAAGADVNAKDFQGITPLHIAAQSGHLEIVEVLLKAGADVNAKDVTGDTPLHLAAQHGHLVIVEVLLKAGADVNAQDERGWTPADLAADWGHEDIAEVLQKAAGGGGSGGGGSGSDLGKKLLEAARAGQDDEVRILMANGADVNAKDEYGLTPLYLATAHGHLEIVEVLLKNGADVNAVDAIGFTPLHLAAFIGHLEIAEVLLKHGADVNAQDKFGKTAFDISIGNGNEDLAEILQKAA
modifications: His-tag; Protein comprising four designed ankyrin repeat domains
mouse pharmacokinetic profile, two versus one serum albumin binding domain ([1]; Protein #30-His compared to Protein #29-His, FIG. 5B): benefit of having two designed ankyrin repeat domains with binding specificity for serum albumin

B5: Protein #27-His: SEQ ID NO: 27 with a His-tag (SEQ ID NO: 1) fused to its N terminus (protein)
chain: MRGSHHHHHHGSDLGKKLLEAARAGQDDEVRILMANGADVNAKDYFSHTPLHLAARNGHLKIVEVLLKAGADVNAKDFAGKTPLHLAANDGHLEIVEVLLKHGADVNAQDIFGKTPADIAADAGHEDIAEVLQKAAGSPTPTPTTPTPTPTTPTPTPTGSDLGAKLLSDLGVKLLWAAARGQDDEVRILLAAGADVNAKDFQGITPLHIAAQSGHLEIVEVLLKAGADVNAKDVTGDTPLHLAAQHGHLVIVEVLLKAGADVNAQDERGWTPADLAADWGHEDIAEVLQKAAGSPTPTPTTPTPTPTTPTPTPTGSDLGKKLLEAARAGQDDEVRILMANGADVNAKDEYGLTPLYLATAHGHLEIVEVLLKNGADVNAVDAIGFTPLHLAAFIGHLEIAEVLLKHGADVNAQDKFGKTAFDISIGNGNEDLAEILQKAAGSPTPTPTTPTPTPTTPTPTPTGSDLGKKLLEAARAGQDDEVRILMANGADVNAKDYFSHTPLHLAARNGHLKIVEVLLKAGADVNAKDFAGKTPLHLAANDGHLEIVEVLLKHGADVNAQDIFGKTPADIAADAGHEDIAEVLQKAA
modifications: His-tag; Protein comprising four designed ankyrin repeat domains
injected dose remaining 48 hours after intravenous injection [1]: 7%
terminal half-life, comparison [1]: longer terminal half-life than Protein #26-His

From patent US20210130420A1, “RECOMBINANT BINDING PROTEINS TARGETING HER2 AND SERUM ALBUMIN, AND THEIR USES” (Molecular Partners AG, priority 2016, published 2021)
